# Measured values as given in US9173935B2, “Phospholipid drug analogs” (Telormedix SA, priority 2010, dated 2015).
# Where two headings read alike, the source gives them in different places.
# Legend:
# [1] = Storage stability by HPLC (solid or chloroform solution; temperature, light); assay type: physicochemical
# Protocol: At this point, a stability study was conducted on batch CH730/16/8g.
# The samples were analyzed at t=0 and after 20 days.
# [2] = tested on: PBMCs; assay: IL-6 and TNF-alpha secretion in PBMCs from three donors (ELISA); assay type: cell-based, human
# Protocol: EC50 values were determined for control and each drug candidate for IL-6 and TNF-alpha secretion. […] The cells were treated with TLR7 agonists for 24 hours in 7 doses. The conditioned media was removed for ELISA analyses for IL-6 and TNF-alpha, and cell survival determined by the XTT method according to the protocol from the supplier. […] Concentrations of IL-6 and TNF-alpha were determined by ELISA from R&D Systems using the Microsoft Excel Software. The results were analyzed in Graph Pad Prism in order to prepare dose-response curves, and for determination of EC50 values.
# [3] = Plasma stability, second experiment, human plasma; conditions: human plasma, second experiment
# Protocol: Second experiment: Test compounds (5 mM in DMSO) were diluted at the final concentration of 250 μM with ACN-MeOH 1:1.
# Human plasma (1.180 ml) was spiked with 20 μl of 250 μM solution of the compound (4.16 μM final concentration) and aliquots of 50 μl volume were taken at 0, 15, 30, 60, 120 min and 5 hrs, and immediately quenched with 200 μl of a solution of Verapamil 250 ng/ml (internal standard, I.S.) in ACN:MeOH 95:5. Samples were then centrifuged for 20 min at 3000 rpm at 10° C. and analyzed as reported below. […] The supernatant fractions were analyzed by LC/MS/MS. Zero-time incubations were used as 100% values.
# Stability was calculated as percentage remaining of the area ratio compound/I.S. at each time point vs. area ratio compound/I.S. at time 0 min.
# [4] = tested on: HLA-DR+/CD11c+/CD123- mDCs; assay: FACS analysis of myeloid DC activation in whole blood; assay type: cell-based, human; conditions: 24 hours, 0.1 and 0.5 uM, three donors
# Protocol: A flow cytometric analysis was performed on whole blood from three donors after treatment with two compound concentrations for 24 h. The FACS analysis for donor 1 and donor 2 was made on another day than donor 3. The compound concentrations were as follows:
# The FACS analysis was used to identify whether the test compounds could induce activation of B cells, and two different subsets of dendritic cells, namely the myeloid CD11c+/CD123− DCs and the plasmacytoid CD11c−/CD123+ DCs. The following markers were studied to identify the activation status of the different subsets:
# The FACS staining was performed according to the manufacturer's instructions. Lysis of red blood cells was performed before FACS staining in order to minimize auto-florescence. To include as many B cells and DCs in the study as possible the FACS analyses were performed on 500,000 cells in total for each staining. A P1 gate was set only to include relevant cells on FSC vs. SSC (see FIGS. 12-15). The results of the individual analysis were present as Mean Fluorescence Intensity
# The analysis of myeloid DCs was based on HLA-DR+/CD11c+/CD123-cells, thus all analyzed cells was included in the HLA-DR+ (P3) gate and CD11c+/CD123− (Q4) gate (see gates in FIGS. 13-15).
# [5] = molecular target: CYP1A2 (Homo sapiens (Human), UniProt P05177); assay: Fluorescent High Throughput P450 assay, CYP1A2; assay type: biochemical; conditions: substrate CEC; read-out: CYP1A2 IC50 (Mean ± S.D.)
# Chain of CYP1A2 (P05177 whole entry, looked up): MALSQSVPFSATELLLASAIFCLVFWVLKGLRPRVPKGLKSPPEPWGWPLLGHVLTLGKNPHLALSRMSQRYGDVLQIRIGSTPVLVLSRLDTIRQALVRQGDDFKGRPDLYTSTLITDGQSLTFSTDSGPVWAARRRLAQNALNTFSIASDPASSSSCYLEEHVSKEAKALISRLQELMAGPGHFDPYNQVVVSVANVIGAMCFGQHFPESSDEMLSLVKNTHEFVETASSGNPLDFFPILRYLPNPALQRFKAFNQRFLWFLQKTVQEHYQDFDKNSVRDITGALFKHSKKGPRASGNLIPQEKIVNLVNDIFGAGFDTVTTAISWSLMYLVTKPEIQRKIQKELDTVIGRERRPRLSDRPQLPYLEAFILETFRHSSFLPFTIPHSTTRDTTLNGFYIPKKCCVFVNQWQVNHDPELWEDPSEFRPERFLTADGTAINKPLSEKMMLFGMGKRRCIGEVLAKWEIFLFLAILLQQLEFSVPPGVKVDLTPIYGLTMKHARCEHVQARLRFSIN
# Protocol: (§1) Inhibition of the P450 isoforms was measured in specific assays using specific substrates that become fluorescent upon CYP metabolism. Compounds, dissolved in ACN (acetonitrile) (CYP2E1, CYP2C8, CYP2B6, CYP3A5) or DMSO (all remaining isoforms), were tested in duplicate (n=2) in concentration-response curves (eight concentrations) in a 96-well plate containing incubation/NADPH regenerating buffer. Specific isoenzymes and substrates were added and incubated at 37° C. Reactions were terminated at different times, depending on the assays, and plates read on a Fluoroskan Ascent at the appropriate emission/excitation wavelengths. Concentration-response curves performed in duplicate for known inhibitors for each isoenzyme were tested in every assay as positive control.
# [6] = molecular target: CYP2C9 (Homo sapiens (Human), UniProt P11712); assay: Fluorescent High Throughput P450 assay, CYP2C9; assay type: biochemical; conditions: substrate MFC; read-out: CYP2C9 IC50 (Mean ± S.D.)
# Chain of CYP2C9 (P11712 whole entry, looked up): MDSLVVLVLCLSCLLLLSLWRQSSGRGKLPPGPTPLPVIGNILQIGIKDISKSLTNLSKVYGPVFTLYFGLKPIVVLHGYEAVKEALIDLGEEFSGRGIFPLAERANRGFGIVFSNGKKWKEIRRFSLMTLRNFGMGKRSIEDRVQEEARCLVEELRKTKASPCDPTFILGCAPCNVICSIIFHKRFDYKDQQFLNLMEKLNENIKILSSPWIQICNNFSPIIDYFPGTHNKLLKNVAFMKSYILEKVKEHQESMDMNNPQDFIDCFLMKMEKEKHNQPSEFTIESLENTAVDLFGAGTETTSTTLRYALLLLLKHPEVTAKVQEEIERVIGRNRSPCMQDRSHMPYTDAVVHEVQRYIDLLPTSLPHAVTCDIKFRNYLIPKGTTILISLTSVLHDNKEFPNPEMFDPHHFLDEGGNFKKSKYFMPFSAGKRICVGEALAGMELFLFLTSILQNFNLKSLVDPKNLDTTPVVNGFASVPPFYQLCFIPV
# Protocol: as §1
# [7] = molecular target: CYP2C19 (Homo sapiens (Human), UniProt P33261); assay: Fluorescent High Throughput P450 assay, CYP2C19; assay type: biochemical; conditions: substrate CEC; read-out: CYP2C19 IC50 (Mean ± S.D.)
# Chain of CYP2C19 (P33261 whole entry, looked up): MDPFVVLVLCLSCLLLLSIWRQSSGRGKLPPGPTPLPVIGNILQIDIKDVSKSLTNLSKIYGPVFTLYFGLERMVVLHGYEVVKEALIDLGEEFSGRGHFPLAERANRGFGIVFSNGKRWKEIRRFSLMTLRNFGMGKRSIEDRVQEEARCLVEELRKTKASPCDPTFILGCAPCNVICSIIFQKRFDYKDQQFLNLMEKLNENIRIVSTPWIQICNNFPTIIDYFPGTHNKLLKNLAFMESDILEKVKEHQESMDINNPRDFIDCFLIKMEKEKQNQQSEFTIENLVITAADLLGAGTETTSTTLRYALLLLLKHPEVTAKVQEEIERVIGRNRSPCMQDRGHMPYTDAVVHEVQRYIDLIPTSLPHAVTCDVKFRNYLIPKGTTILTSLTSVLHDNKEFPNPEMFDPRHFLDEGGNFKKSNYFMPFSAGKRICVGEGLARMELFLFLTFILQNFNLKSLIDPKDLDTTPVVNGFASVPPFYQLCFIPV
# Protocol: as §1
# [8] = molecular target: CYP3A5 (Homo sapiens (Human), UniProt P20815); assay: Fluorescent High Throughput P450 assay, CYP3A5; assay type: biochemical; conditions: substrate BFC; read-out: CYP3A5 IC50 (Mean ± S.D.)
# Chain of CYP3A5 (P20815 whole entry, looked up): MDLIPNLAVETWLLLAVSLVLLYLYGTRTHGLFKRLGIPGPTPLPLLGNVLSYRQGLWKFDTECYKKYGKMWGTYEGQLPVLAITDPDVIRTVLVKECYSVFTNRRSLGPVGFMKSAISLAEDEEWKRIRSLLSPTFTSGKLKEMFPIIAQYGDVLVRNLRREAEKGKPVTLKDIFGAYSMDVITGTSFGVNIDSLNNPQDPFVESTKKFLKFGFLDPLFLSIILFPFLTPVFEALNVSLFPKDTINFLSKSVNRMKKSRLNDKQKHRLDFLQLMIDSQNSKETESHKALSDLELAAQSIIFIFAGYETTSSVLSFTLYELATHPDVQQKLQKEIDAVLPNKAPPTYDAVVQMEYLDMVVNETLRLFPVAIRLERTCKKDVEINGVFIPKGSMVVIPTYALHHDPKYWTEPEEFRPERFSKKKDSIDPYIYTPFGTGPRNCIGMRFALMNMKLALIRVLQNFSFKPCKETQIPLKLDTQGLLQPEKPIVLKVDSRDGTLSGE
# Protocol: as §1
# [9] = molecular target: CYP2E1 (Homo sapiens (Human), UniProt P05181); assay: Fluorescent High Throughput P450 assay, CYP2E1; assay type: biochemical; conditions: substrate MFC; read-out: CYP2E1 IC50 (Mean ± S.D.)
# Chain of CYP2E1 (P05181 whole entry, looked up): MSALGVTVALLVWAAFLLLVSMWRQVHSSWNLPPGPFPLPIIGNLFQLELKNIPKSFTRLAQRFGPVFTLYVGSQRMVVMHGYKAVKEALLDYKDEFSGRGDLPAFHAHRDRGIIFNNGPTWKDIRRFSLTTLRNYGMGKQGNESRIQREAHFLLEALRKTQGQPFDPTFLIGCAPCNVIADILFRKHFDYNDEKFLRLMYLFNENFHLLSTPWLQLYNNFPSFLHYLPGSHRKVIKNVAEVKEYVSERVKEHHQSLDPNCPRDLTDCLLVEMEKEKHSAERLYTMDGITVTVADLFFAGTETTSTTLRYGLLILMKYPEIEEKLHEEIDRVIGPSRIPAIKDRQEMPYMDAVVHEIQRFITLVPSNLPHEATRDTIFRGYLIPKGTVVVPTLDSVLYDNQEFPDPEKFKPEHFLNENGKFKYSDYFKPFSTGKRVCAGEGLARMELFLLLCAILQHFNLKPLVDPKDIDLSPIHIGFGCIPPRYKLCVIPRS
# Protocol: as §1
# [10] = tested on: Cutaneous Squamous Cell Carcinoma cell lines SCL-I, SCL-II, SCC-12, SCC-13; assay: Direct proapoptotic and cytotoxic effects on SCC cells (real-time cell analysis, microscopy); assay type: cell-based, human
# Protocol: SCC cells are grown under standard conditions (10% FBS).
# Time and dose dependency of effects on total cell numbers have been investigated by real-time cell analysis, which is based on continuous monitoring of electric conductance in microtiter wells (E-plates, Roche), which corresponds to the cell numbers. […] For these assays 4 cell lines should be used to obtain a representative overview on the effects on SCC cells.
# [11] = tested on: recombinant protein antigens from Plasmodium falciparum and Mycobacterium ulcerans; assay: Pilot immunization study with adjuvanted protein antigens; assay type: in vivo, mice; conditions: three s.c. immunizations
# Protocol: A pilot immunization study was conducted using Compound A and SC12 adjuvanted protein antigens. The immunization experiments were performed with two recombinant proteins expressed in E. coli. One antigen was derived from the malaria parasite Plasmodium falciparum and the other one from Mycobacterium ulcerans, which cause the ulcerative skin disease Buruli ulcer.
# [12] = tested on: RAW.264 cells; assay: Intracellular uptake in RAW.264 cells (LC-MS); assay type: cell-based; conditions: 10 microM
# Protocol: 5×10^6 RAW.264 cells were adhered overnight in 10 cm tissue culture dishes. […] […] Supernatant (2 ml) and cells (pellets) were collected by trypsinization and frozen at […] for subsequent analysis by LC-MS.
# [13] = tested on: AY-27 rat bladder cancer cell-line; conditions: in vivo
structure (smiles),measurement,setting,value
CCCCCCCCCCCC(=O)OCC(COP(=O)(O)OCCNC(=O)c1ccc(Cn2c(=O)[nH]c3c(N)nc(OCCOC)nc32)cc1)OC(=O)CCCCCCCCCCC (stereo not shown) [SC12],HPLC RRT = 1,"[1]; Solid, RT and light, t = 20 days",RRT = 1: 87.8%
same,HPLC RRT = 1,"[1]; Solid, external T and light, t = 20 days",RRT = 1: 84.0%
same,HPLC RRT = 1,"[1]; Solution in CHCl3, RT and light, t = 20 days",RRT = 1: 88.0%
same,HPLC RRT = 1,[1]; t = 0,RRT = 1: 90.3%
same,EC50,"[2]; D1, first experiments on three donors, read-out: EC50 values, IL-6 secretion",1.44 µM
same,EC50,"[2]; D2, first experiments on three donors, read-out: EC50 values, IL-6 secretion",0.864 µM
same,EC50,"[2]; D3, first experiments on three donors, read-out: EC50 values, IL-6 secretion",2.78 µM
same,EC50,"[2]; Donor 1, 24 hours, read-out: IL-6 secretion MC50",1.44 µM
same,EC50,"[2]; Donor 1, 24 hours, read-out: TNFa secretion MC50",0.995 µM
same,EC50,"[2]; Donor 2, 24 hours, read-out: IL-6 secretion MC50",0.864 µM
same,EC50,"[2]; Donor 2, 24 hours, read-out: TNFa secretion MC50",0.275 µM
same,EC50,"[2]; Donor 3, 24 hours, read-out: IL-6 secretion MC50",2.78 µM
same,EC50,"[2]; Donor 3, 24 hours, read-out: TNFa secretion MC50",0.121 µM
same,EC50,"[2]; average of three donors, read-out: IL-6 secretion Average EC50",1.7 µM
same,EC50,"[2]; average of three donors, read-out: TNFa secretion Average EC50",0.464 µM
same,% Remaining,[3]; 0 min,100%
same,% Remaining,[3]; 15 min,112.6 ± 1.0%
same,% Remaining,[3]; 30 min,110.0 ± 1.0%
same,% Remaining,[3]; 60 min,96.7 ± 6.3%
same,% Remaining,[3]; 120 min,102.1 ± 8.7%
same,Plasma stability classification,[3]; up to 120 min,stable
same,CCR7 expression on mDCs,[4],less potent stimulator of CCR7 expression
same,CD80 expression on mDCs,[4],induced a noteworthy CD80 expression in all three donors
same,CD86 expression on mDCs,[4],"induces a weak CD86 expression in donor 2 and 3, but not in donor 1"
same,IC50,[5],> 100 µM
same,IC50,[6],33.4 ± 0.3 µM
same,IC50,[7],> 100 µM
same,IC50,[8],10.5 ± 0.5 µM
same,IC50,[9],9.2 ± 0.1 µM
same,"Cell numbers (electric conductance, real-time cell analysis)","[10]; 4 cutaneous SCC cell lines, versus untreated control",reduced cell numbers
same,Morphology and proliferation (microscopy),"[10]; day 3, 120 microM","cell detachment, morphological changes and inhibition of proliferation"
same,"Local side effects (swelling, ulcerations)",[11]; 10 nMol adjuvant,No local side effects
same,IgG responses against target antigens,[11]; 20 micrograms antigen with 10 nMol adjuvant,all 20 immunized mice had developed IgG responses
same,Intracellular Concentration,[12]; incubation 1 hours,18.5 % of total
same,Intracellular Concentration,[12]; incubation 6 hours,20.6 % of total
same,Intracellular Concentration,[12]; incubation 18 hours,21.4 % of total
same,Signs of toxicity,[13],No signs of toxicity
